Patent US10077261B2, “Imidazolin-5-one derivative useful as FASN inhibitors for the treatment of cancer” (Janssen Pharmaceutica NV, priority 2012, dated 2018)

Molecular target: T1, hFASN enzyme (full length) (Homo sapiens, UniProt P49327)
T1 construct: 10 μL hFASN enzyme (full length, 300 ng, purified in house); made in house
Assay: Fatty Acid Synthase (FASN) inhibition scintillation proximity assay
Format: biochemical
Conditions: for inhibition at 10 µM: read-out: Human FASN % inhibition @ 10 μM, 10 μM test compound; for IC50: read-out: Human FASN pIC50 (converted)
Summary of the method: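 Full-length in-house purified enzyme (300 ng) was tested in 100 mM KH2PO4 pH 7.5, 1 mM DTT with ³H-acetyl-CoA and malonyl-CoA as substrates; compounds ranged 0.01–30 μM. Reactions were stopped with streptavidin imaging beads, read by LEADseeker at 610 nm, and fitted to a 4-parameter logistic curve.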

T1 sequence (P49327 whole entry): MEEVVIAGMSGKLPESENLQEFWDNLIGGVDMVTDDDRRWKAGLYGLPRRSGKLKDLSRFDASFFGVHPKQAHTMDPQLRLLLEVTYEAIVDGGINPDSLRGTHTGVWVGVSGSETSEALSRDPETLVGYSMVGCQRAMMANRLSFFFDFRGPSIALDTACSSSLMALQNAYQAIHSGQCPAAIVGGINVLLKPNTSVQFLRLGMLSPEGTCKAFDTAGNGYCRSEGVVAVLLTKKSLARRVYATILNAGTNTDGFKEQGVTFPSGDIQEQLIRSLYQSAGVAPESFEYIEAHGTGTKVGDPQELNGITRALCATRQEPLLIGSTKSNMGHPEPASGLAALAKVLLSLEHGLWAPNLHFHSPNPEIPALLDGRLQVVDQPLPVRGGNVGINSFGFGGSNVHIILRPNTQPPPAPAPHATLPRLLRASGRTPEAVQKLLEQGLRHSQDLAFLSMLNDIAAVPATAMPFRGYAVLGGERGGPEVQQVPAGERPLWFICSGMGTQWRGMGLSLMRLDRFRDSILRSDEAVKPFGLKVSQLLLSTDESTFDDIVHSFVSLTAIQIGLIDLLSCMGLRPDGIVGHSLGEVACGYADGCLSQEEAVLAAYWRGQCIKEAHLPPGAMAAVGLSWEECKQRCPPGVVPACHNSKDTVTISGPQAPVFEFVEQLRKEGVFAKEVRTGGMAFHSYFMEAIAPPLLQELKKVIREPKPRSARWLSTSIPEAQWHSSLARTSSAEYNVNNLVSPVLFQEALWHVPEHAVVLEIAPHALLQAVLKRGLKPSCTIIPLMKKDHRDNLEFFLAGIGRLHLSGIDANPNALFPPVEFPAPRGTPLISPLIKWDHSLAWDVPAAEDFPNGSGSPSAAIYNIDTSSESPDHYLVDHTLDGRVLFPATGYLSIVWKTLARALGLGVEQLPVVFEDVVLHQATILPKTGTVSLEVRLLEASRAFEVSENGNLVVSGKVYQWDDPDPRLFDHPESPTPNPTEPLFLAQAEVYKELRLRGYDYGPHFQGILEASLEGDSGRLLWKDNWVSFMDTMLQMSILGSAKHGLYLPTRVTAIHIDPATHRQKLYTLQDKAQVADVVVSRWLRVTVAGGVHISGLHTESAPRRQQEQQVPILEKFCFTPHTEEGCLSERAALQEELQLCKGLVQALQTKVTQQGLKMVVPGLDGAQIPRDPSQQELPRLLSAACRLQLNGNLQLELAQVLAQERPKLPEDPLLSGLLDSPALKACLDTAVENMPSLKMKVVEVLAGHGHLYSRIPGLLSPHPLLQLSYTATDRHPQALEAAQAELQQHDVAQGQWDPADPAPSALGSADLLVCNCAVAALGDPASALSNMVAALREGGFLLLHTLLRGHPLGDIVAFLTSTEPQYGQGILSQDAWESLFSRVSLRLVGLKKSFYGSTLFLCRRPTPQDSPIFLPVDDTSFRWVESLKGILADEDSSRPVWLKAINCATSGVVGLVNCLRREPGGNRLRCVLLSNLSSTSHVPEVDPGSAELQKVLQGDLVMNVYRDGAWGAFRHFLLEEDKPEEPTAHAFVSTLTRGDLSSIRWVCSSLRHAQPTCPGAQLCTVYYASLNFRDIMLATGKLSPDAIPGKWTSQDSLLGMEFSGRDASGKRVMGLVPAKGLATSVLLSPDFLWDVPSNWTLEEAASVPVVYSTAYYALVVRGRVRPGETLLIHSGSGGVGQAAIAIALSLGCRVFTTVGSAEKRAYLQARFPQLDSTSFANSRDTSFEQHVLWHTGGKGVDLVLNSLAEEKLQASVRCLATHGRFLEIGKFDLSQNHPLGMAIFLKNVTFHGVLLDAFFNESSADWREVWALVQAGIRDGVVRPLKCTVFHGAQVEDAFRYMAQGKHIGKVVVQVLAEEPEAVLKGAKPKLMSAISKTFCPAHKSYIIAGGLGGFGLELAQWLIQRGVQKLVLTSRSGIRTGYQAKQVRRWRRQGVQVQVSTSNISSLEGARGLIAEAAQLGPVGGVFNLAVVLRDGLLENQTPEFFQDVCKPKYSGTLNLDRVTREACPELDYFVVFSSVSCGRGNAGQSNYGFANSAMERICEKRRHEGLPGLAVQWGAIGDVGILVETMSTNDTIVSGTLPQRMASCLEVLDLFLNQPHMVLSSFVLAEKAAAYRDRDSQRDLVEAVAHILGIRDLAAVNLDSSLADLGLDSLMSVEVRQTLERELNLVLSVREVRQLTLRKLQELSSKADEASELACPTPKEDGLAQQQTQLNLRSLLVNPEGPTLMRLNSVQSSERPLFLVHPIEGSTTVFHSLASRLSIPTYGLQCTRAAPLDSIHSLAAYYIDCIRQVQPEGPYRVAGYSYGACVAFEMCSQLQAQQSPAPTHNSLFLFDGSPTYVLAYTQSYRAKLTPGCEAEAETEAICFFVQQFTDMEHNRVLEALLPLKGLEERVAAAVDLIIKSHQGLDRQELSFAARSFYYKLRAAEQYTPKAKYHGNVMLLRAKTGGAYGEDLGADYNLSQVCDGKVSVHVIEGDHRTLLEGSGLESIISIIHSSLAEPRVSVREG

inhibition at 10 µM	IC50	Human FASN pIC50 (hFASN enzyme, full length, "~" means standard error of the pIC50 is larger than 0.5)	SMILES
104%	0.138 µM		Cc1sc2ccc(-c3ccc(C4=NC5(CCN(C(=O)CN(C)C)CC5)C(=O)N4C[C@@H]4CCN(C(=O)C5CC5)C4)cc3)cc2c1C [compound 182, 3-{[(3R)-1-(Cyclopropylcarbonyl)pyrrolidin-3-yl]methyl}-2-[4-(2,3-dimethyl-1-benzothiophen-5-yl)phenyl]-8-(N,N-dimethylglycyl)-1,3,8-triazaspiro[4.5]dec-1-en-4-one]
109%	0.138 µM		Cc1sc2ccc(-c3ccc(C4=NC5(CCN(C(=O)C(C)C)CC5)C(=O)N4C[C@@H]4CCN(C(=O)C5CC5)C4)cc3)cc2c1C [compound 183, 3-{[(3R)-1-(Cyclopropylcarbonyl)pyrrolidin-3-yl]methyl}-2-[4-(2,3-dimethyl-1-benzothiophen-5-yl)phenyl]-8-(2-methylpropanoyl)-1,3,8-triazaspiro[4.5]dec-1-en-4-one]
107%	0.437 µM		Cc1sc2ccc(-c3ccc(C4=NC5(CCN(C(C)C)CC5)C(=O)N4C[C@@H]4CCN(C(=O)C5CC5)C4)cc3)cc2c1C [compound 184, 3-{[(3R)-1-(Cyclopropylcarbonyl)pyrrolidin-3-yl]methyl}-2-[4-(2,3-dimethyl-1-benzothiophen-5-yl)phenyl]-8-(1-methylethyl)-1,3,8-triazaspiro[4.5]dec-1-en-4-one]
80.4%	1.55 µM		Cc1cc2cc(-c3ccc(C4=NC5(CCN(C(C)C)CC5)C(=O)N4C[C@@H]4CCN(C(=O)C5CC5)C4)cc3)ccc2o1 [compound 186, 3-{[(3R)-1-(Cyclopropylcarbonyl)pyrrolidin-3-yl]methyl}-2-[4-(2-methyl-1-benzofuran-5-yl)phenyl]-8-(1-methylethyl)-1,3,8-triazaspiro[4.5]dec-1-en-4-one]
96.5%	0.603 µM		CC(C)N1CCC2(CC1)N=C(c1ccc(-c3ccc4[nH]ccc4c3)cc1)N(CC1CN(C(=O)C3CC3)C1)C2=O [compound 187, 3-{[1-(Cyclopropylcarbonyl)azetidin-3-yl]methyl}-2-[4-(1H-indol-5-yl)phenyl]-8-(1-methylethyl)-1,3,8-triazaspiro[4.5]dec-1-en-4-one]
50.4%	~10 µM		CC(C)N1CCC2(CC1)N=C(c1ccc(-c3ccc4[nH]ncc4c3)cc1)N(CC1CN(C(=O)C3CC3)C1)C2=O [compound 188, 3-{[1-(Cyclopropylcarbonyl)azetidin-3-yl]methyl}-2-[4-(1H-indazol-5-yl)phenyl]-8-(1-methylethyl)-1,3,8-triazaspiro[4.5]dec-1-en-4-one]
16.7%	> 10 µM		O=C1N(C[C@@H]2CCN(S(=O)(=O)N3CCCC3)C2)C(c2ccc(-c3ccc4occc4c3)cc2)=NC12CCCC2 [compound 189, 2-[4-(1-Benzofuran-5-yl)phenyl]-3-{[(3S)-1-(pyrrolidin-1-ylsulfonyl)pyrrolidin-3-yl]methyl}-1,3-diazaspiro[4.4]non-1-en-4-one]
105%	0.295 µM		O=C([C@@H]1CCCO1)N1CC[C@@H](CN2C(=O)C3(CCCC3)N=C2c2ccc(-c3ccc4occc4c3)cc2)C1 [compound 190, 2-(4-(Benzofuran-5-yl)phenyl)-3-(((R)-1-((S)-tetrahydro-furan-2-carbonyl)pyrrolidin-3-yl)methyl)-1,3-diazaspiro[4.4]non-1-en-4-one]
108%	0.0794 µM		O=C([C@H]1CCCO1)N1CC[C@@H](CN2C(=O)C3(CCCC3)N=C2c2ccc(-c3ccc4occc4c3)cc2)C1 [compound 191, 2-[4-(1-Benzofuran-5-yl)phenyl]-3-({(3R)-1-[(2R)-tetrahydro-furan-2-ylcarbonyl]pyrrolidin-3-yl}methyl)-1,3-diazaspiro[4.4]non-1-en-4-one]
94.3%	0.589 µM		N#CC1(C(=O)N2CC[C@@H](CN3C(=O)C4(CCCC4)N=C3c3ccc(-c4ccc5occc5c4)cc3)C2)CC1 [compound 192, 1-{[(3R)-3-({2-[4-(1-Benzofuran-5-yl)phenyl]-4-oxo-1,3-diazaspiro[4.4]non-1-en-3-yl}methyl)pyrrolidin-1-yl]carbonyl}cyclopropancarbonitrile]
56%	7.24 µM		O=C(C1CC1)N1CCC[C@@H](CN2C(=O)C3(CC3)N=C2c2ccc(-c3ccc4[nH]ncc4c3)cc2)C1 [compound 389, 6-{[(3R)-1-(Cyclopropylcarbonyl)piperidin-3-yl]methyl}-5-[4-(1H-indazol-5-yl)phenyl]-4,6-diazaspiro[2.4]hept-4-en-7-one]
62%	~2.88 µM		Cc1cc(C2=NC3(CC3)C(=O)N2CC2CN(C(=O)C3CC3)C2)ccc1-c1ccc2occc2c1 [compound 393, 5-[4-(1-Benzofuran-5-yl)-3-methylphenyl]-6-{[1-(cyclopropylcarbonyl)azetidin-3-yl]methyl}-4,6-diazaspiro[2.4]hept-4-en-7-one]
84%	1.07 µM		O=C(C1CC1)N1CCC[C@@H](CN2C(=O)C3(CC3)N=C2c2ccc(-c3ccc4sccc4c3)cc2)C1 [compound 394, 5-[4-(1-Benzothiophen-5-yl)phenyl]-6-{[(3R)-1-(cyclopropylcarbonyl)piperidin-3-yl]methyl}-4,6-diazaspiro[2.4]hept-4-en-7-one]
54%	6.31 µM		O=C(C1CC1)N1CCC[C@@H](CN2C(=O)C3(CC3)N=C2c2ccc(-c3ccc4occc4c3)cc2)C1 [compound 395, 5-[4-(1-Benzofuran-5-yl)phenyl]-6-{[(3R)-1-(cyclopropylcarbonyl)piperidin-3-yl]methyl}-4,6-diazaspiro[2.4]hept-4-en-7-one]
70%	3.72 µM		COC(=O)c1cccc(-c2ccc(C3=NC4(CC4)C(=O)N3C[C@@H]3CCN(C(=O)C4CC4)C3)cc2)c1 [compound 401, Methyl 4′-(6-{[(3R)-1-(cyclopropylcarbonyl)pyrrolidin-3-yl]methyl}-7-oxo-4,6-diazaspiro[2.4]hept-4-en-5-yl)biphenyl-3-carboxylate]
69%	2.34 µM		Cn1nccc1-c1ccc(-c2ccc(C3=NC4(CC4)C(=O)N3C[C@@H]3CCN(C(=O)C4CC4)C3)cc2)cc1 [compound 407, 6-{[(3R)-1-(Cyclopropylcarbonyl)pyrrolidin-3-yl]methyl}-5-[4′-(1-methyl-1H-pyrazol-5-yl)biphenyl-4-yl]-4,6-diazaspiro[2.4]hept-4-en-7-one]
63%	5.13 µM		O=C(C1CC1)N1CC[C@H](CN2C(=O)C3(CC3)N=C2c2ccc(-c3ccc(O)cc3)cc2)C1 [compound 408, 6-{[(3S)-1-(Cyclopropylcarbonyl)pyrrolidin-3-yl]methyl}-5-(4′-hydroxybiphenyl-4-yl)-4,6-diazaspiro[2.4]hept-4-en-7-one]
80%	1.26 µM		O=C(C1CC1)N1CC(CN2C(=O)C3(CC3)N=C2c2ccc(-c3ccc4occc4c3)c(F)c2)C1 [compound 415]
76%	~1.78 µM		Cc1cc2cc(-c3ccc(C4=NC5(CC5)C(=O)N4CC4CN(C(=O)C5CC5)C4)cc3F)ccc2o1 [compound 416, 6-{[1-(Cyclopropylcarbonyl)azetidin-3-yl]methyl}-5-[3-fluoro-4-(2-methyl-1-benzofuran-5-yl)phenyl]-4,6-diazaspiro[2.4]hept-4-en-7-one]
62%	5.25 µM		Cc1oc2ccc(-c3ccc(C4=NC5(CC5)C(=O)N4CC4CN(C(=O)C5CC5)C4)cc3F)cc2c1C [compound 417, 6-{[1-(Cyclopropylcarbonyl)azetidin-3-yl]methyl}-5-[4-(2,3-dimethyl-1-benzofuran-5-yl)-3-fluorophenyl]-4,6-diazaspiro[2.4]hept-4-en-7-one]
70%	3.31 µM		O=C(C1CC1)N1CC[C@@H](CN2C(=O)C3(CC3)N=C2c2ccc(-c3ccc4occc4c3)s2)C1 [compound 422, 5-[5-(1-Benzofuran-5-yl)thiophen-2-yl]-6-{[(3R)-1-(cyclopropylcarbonyl)pyrrolidin-3-yl]methyl}-4,6-diazaspiro[2.4]hept-4-en-7-one]
68%	3.98 µM		O=C(C1CC1)N1CC[C@@H](CN2C(=O)C3(CC3)N=C2c2ccc(-c3ccc4[nH]ncc4c3)s2)C1 [compound 424, 6-{[(3R)-1-(Cyclopropylcarbonyl)pyrrolidin-3-yl]methyl}-5-[5-(1H-indazol-5-yl)thiophen-2-yl]-4,6-diazaspiro[2.4]hept-4-en-7-one]
52%		5.05	Cn1ncc2cc(-c3ccc(C4=NC5(CC5)C(=O)N4C[C@@H]4CCN(C(=O)C5CC5)C4)s3)ccc21 [compound 430, 6-{[(3R)-1-(Cyclopropylcarbonyl)pyrrolidin-3-yl]methyl}-5-[5-(1-methyl-1H-indazol-5-yl)thiophen-2-yl]-4,6-diazaspiro[2.4]hept-4-en-7-one]
72%	1.82 µM		Cc1cc2cc(-c3ccc(C4=NC5(CC5)C(=O)N4CC4CN(C(=O)C5CC5)C4)cc3F)ccc2s1 [compound 433, 6-{[1-(Cyclopropylcarbonyl)azetidin-3-yl]methyl}-5-[3-fluoro-4-(2-methyl-1-benzothiophen-5-yl)phenyl]-4,6-diazaspiro[2.4]hept-4-en-7-one]
73%	2.04 µM		Cc1sc2ccc(-c3ccc(C4=NC5(CC5)C(=O)N4CC4CN(C(=O)C5CC5)C4)cc3F)cc2c1C [compound 434, 6-{[1-(Cyclopropylcarbonyl)azetidin-3-yl]methyl}-5-[4-(2,3-dimethyl-1-benzothiophen-5-yl)-3-fluorophenyl]-4,6-diazaspiro[2.4]hept-4-en-7-one]
